The text below walks through data of US5530133A, “7'-amino-naphthazarin antibiotic derivatives” (Gruppo Lepetit SpA, priority 1995, dated 1996).

The test system of assay [1] is Trichomonas vaginalis (clin. isol.). Description: MIC by broth dilution, Trichomonas vaginalis. The format is cell-based. Particulars: code TVL; approx. 10^5 cells/ml; Trichomonas Culture Medium Base + 10% horse serum; 48 h, 37° C. As for the experimental part: Inocula were approximately 10^4 cfu. Incubation was for 48 hours at 37° C. in nitrogen-carbon dioxide-hydrogen (80:10:10). […] The inoculum was approximately 10^5 cells/ml. After 48 hours of incubation at 37° C. in nitrogen-carbon dioxide-hydrogen (80:10:10) the wells were viewed directly with a microscope to detect the presence of viable (motile) protozoa.

Assay [2] deals with Gram-positive and Gram-negative bacteria and fungi. The settings on record: according to U.S. Pat. No. 3,914,257; fungi incl. Trichophyton mentagrophytes and Candida albicans; cited from earlier work.
The test system of assay [3] is Gardnerella vaginalis ATCC 14018. Description: MIC by agar dilution, Gardnerella vaginalis. Format: cell-based. The settings on record: code 332; Casman medium + rabbit blood; approx. 10^4 cfu; 48 h, 37° C.

In the case of `CNC1=CC(=O)c2c(O)c3c(c(O)c2C1=O)OC1(CCc2cc4cc(C(=O)OC)oc(=O)c4c(O)c2O1)C3` (stereo not shown) [Example 32, 7'-methylamino γ-rubromycin], the MIC in assay [1] was found to be 2 µg/mL.

For the compound `COC(=O)c1cc2cc3c(c(O)c2c(=O)o1)OC1(Cc2c(O)c4c(c(O)c2O1)C(=O)C(OC)=CC4=O)CC3O` (stereo not shown) [purpuromycin], in assay [2], the “in vitro antimicrobial activity” value is “active in vitro against both Gram-positive and Gram-negative bacteria and fungi”.

Consider `CCNC1=CC(=O)c2c(O)c3c(c(O)c2C1=O)OC1(C3)CC(O)c2cc3cc(C(=O)OC)oc(=O)c3c(O)c2O1` (stereo not shown) [Example 10, 7'-ethylamino purpuromycin], for which the MIC was 8 µg/mL in assay [1] and 2 µg/mL in assay [3].
